Experimental findings from patent publication US9763444B2, “Compositions and methods for repelling blood-sucking and biting insects, ticks and mites” (The United States of America, as represented by the …, priority 2013, dated 2017) are described below.

Assay [1] concerns Ae. aegypti. Briefly: MED of varying molar ratios of 2 and DEET (synergistic activity). It is filed as in vivo, Aedes aegypti. The settings on record: Table 6, molar ratio 2:DEET; for Ae. aegypti Minimum Effective Dosage, Average: mean of 3 volunteers; for Ae. aegypti Minimum Effective Dosage, M4: subject M4; for Ae. aegypti Minimum Effective Dosage, M4 / Ae. aegypti Minimum Effective Dosage, M5 / Ae. aegypti Minimum Effective Dosage, M8: highest dose 4.0 mg/cm2; for Ae. aegypti Minimum Effective Dosage, M5: subject M5; for Ae. aegypti Minimum Effective Dosage, M8: subject M8. As for the experimental part:
Minimum Effective Dosage (MED) Test: The MED bioassays on treated cloth were a method of screening to determine the minimum amount of a repellent needed to prevent bites. Experimental compounds were prepared in solution by combining 0.15 g of experimental chemical with 2 mL of acetone in a 7.1 mL screwtop glass vial. […] The standard N,N-diethyl-3-methylbenzamide (DEET) was also tested at the same concentration levels to serve as a control and a comparison for relative repellency. A 50 cm^2 (5 cm×10 cm) patch of muslin cloth was rolled lengthwise and placed into each of the glass vials and scaled with a screwtop so it soaked up the solution. Just prior to the experiment, the pieces of treated cloth were removed from the vials, affixed to card stock tabs (5 cm×3 cm) with staples, and hung with masking tape on a rack to dry and allow acetone to evaporate. Volunteers wore a latex glove over their hands, a nylon stocking over their arm, and then wrapped a plastic Velcro-sealed sleeve over their entire forearm with a 32 cm^2 (4 cm×8 cm) window cut-out to allow mosquitoes to bite through. The nylon stocking acted as a barrier between the dried cloth and the skin, an additional precaution with experimental compounds. Dried cloth patches were stretched across the window in the plastic sleeve and held in place with masking tape. Volunteers placed their sleeve-covered arms into a screened cage for a one minute period with approximately 500 female Ae. aegypti mosquitoes that had been preselected for host-seeking behavior using a draw box (Posey, K. H., and C. E. Schreck, Mosquito News, 41: 566-568 (1981)). […] The MED recorded was the lowest passing concentration level tested for the experimental compound. […] All human volunteers in the study provided informed consent to participate of a protocol approved by the University of Florida Human Use Institutional Review Board (IRB #636-2005).
Compound 2 was also evaluated with DEET for synergistic activity. Test samples were prepared at varying molar ratios of DEET: 2 (1:0-1:[…]) and the MED values were evaluated (Table 6).

In assay [2] the test system is Ae. aegypti. Briefly: Complete Protection Time test on treated cloth (duration of protection). It is filed as in vivo, Aedes aegypti. As to conditions: Dosage 0.75 mg/cm^2 on cloth; for Duration of protection against Ae. aegypti, M-3 Days Protection: subject M-3. How it is done:
Bioassay for mosquito repellent activity: Repellency screening test for experimental chemicals were carried out to identify candidates that might be useful repellents. The repellent efficacy was compared to that of the standard repellent, DEET. Experimental compounds were assessed in one of two ways: (1) a range of concentration was evaluated to determine the minimum effective dosage (MED) which was the concentration threshold of where the repellent began to fail and allowed bites, or (2) a predetermined concentration of each repellent was applied to cloth and the activity was evaluated over several days (or in some cases months) (Katritzky, A. R., et al., Proc. Nat. Acad. Sci. (US), 105, 7359-7364 (2008); Katritzky, A. R., et al., Journal of Med. Entomol., 47: 924-938 (2010)). When conducting assays for repellency, a failure point was also predetermined for those measurements. Since experiments described herein used about 500 female mosquitoes per test, the failure point was set at 1% (equal to 5 bites) received during a test interval. From 3 to 5 volunteers participated in the screening of each set of chemicals. Complete Protection Time Test: Complete protection time (CPT) on treated cloth is a method of screening that is used to determine the repellent duration for experimental chemicals that have not been examined for safe use on humans. The standard repellent DEET was used as a positive control as a benchmark by which to compare the repellents. Experimental compounds were prepared in solution by combining 0.075 g of experimental chemical with 1 mL of acetone in a 7.1-mL screwtop glass vial. The same concentration level of DEET was also prepared in this way to serve as a control and a comparison for relative repellency. A 50 cm^2 (5 cm×10 cm) patch of muslin cloth was rolled lengthwise and placed into each of the glass vials and sealed with a screwtop so it soaked up the solution. Just prior to the experiment, the pieces of treated cloth were removed from the vials, affixed to card stock tabs (5 cm×3 cm) with staples, and hung with masking tape on a rack to dry and allowed the volatile acetone to evaporate. Similar to the MED tests, volunteers wore a latex glove over their hands, a nylon stocking over their arm, and then wrapped a plastic Velcro-sealed sleeve over their entire forearm with a 32 cm^2 (4 cm×8 cm) window cut-out to allow mosquitoes to bite through. Dried cloth patches were stretched across the window in the plastic sleeve and held in place with masking tape. Volunteers placed their sleeve-covered arms into a screened cage for a one minute period with approximately 500 female Ae. aegypti mosquitoes that had been preselected for host-seeking behavior using a draw box. A cloth patch that received a 1% bite through level, equal to 5 mosquitoes that bit out of 500 mosquitoes, was considered a failure at that concentration. If 0-4 bites were received, then the treated cloth was still considered to be repellent at that concentration. The duration was recorded as the number of days an experimental chemical received a passing result, with day 0 being the day the sample was first dried. […] As with the tests conducted to determine CPT, volunteers in the study provided informed consent (IRB protocol #636-2005). The protocol was approved by the University of Florida Human Use Institutional Review Board.

`CC1(C)C=Cc2c(CO)cccc2O1` [Compound 2]: in the assay on Ae. aegypti [1], the “Ae. aegypti Minimum Effective Dosage, Average” value was 0.0260 mg/cm^2; the “Ae. aegypti Minimum Effective Dosage, M4” value is 0.0156 mg/cm^2; the “Ae. aegypti Minimum Effective Dosage, M5” value is on record as 0.0313 mg/cm^2; the “Ae. aegypti Minimum Effective Dosage, M8” value was 0.0313 mg/cm^2. Also, in the assay with Ae. aegypti [2], the “Duration of protection, Proportion to DEET” value was determined as 3.00 and the “Duration of protection against Ae. aegypti, M-3 Days Protection” value is 6 days.
Regarding `CCN(CC)C(=O)c1cccc(C)c1` [DEET, N,N-diethyl-3-methylbenzamide, reference compound], in the assay on Ae. aegypti [1], the “Ae. aegypti Minimum Effective Dosage, Average” value amounted to 0.0313 mg/cm^2; the “Ae. aegypti Minimum Effective Dosage, M4” value came out at 0.0313 mg/cm^2; the “Ae. aegypti Minimum Effective Dosage, M5” value was 0.0313 mg/cm^2; the “Ae. aegypti Minimum Effective Dosage, M8” value was 0.0313 mg/cm^2. Besides, in the assay with Ae. aegypti [2], the “Duration of protection, Proportion to DEET” value is 1.00 and the “Duration of protection against Ae. aegypti, M-3 Days Protection” value was determined as 2 days.
